The values below come from ChEMBL document CHEMBL3751678, “Stabilizing G-quadruplex DNA by methylazacalix[n]pyridine through shape-complementary interaction” (Bioorg Med Chem Lett, 2016).

The structures appear in SMILES notation.

Assay [1] is filed under the species Homo sapiens. As to the kind of experiment: Stabilization of human H12 G-quadruplex DNA assessed as change in melting temparature by circular dichroism analysis.
Assay [2] is filed under the species Homo sapiens. In words: Stabilization of human T12 G-quadruplex DNA assessed as change in melting temparature by circular dichroism analysis.
Assay [3] can be described thus: Stabilization of Bcl2 G-quadruplex DNA (unknown origin) assessed as change in melting temparature by circular dichroism analysis.
The nature of assay [4]: Stabilization of TBA G-quadruplex DNA (unknown origin) assessed as change in melting temparature by circular dichroism analysis. A general note: Circular dichroism is the unequal absorption of left and right circularly polarised light.
Assay [5] is described as follows: Stabilization of c-kit G-quadruplex DNA (unknown origin) assessed as change in melting temparature by circular dichroism analysis.

For `CN1c2cccc(n2)N(C)c2cccc(n2)N(C)c2cccc(n2)N(C)c2cccc1n2`, the ΔTm (in the assay filed under Homo sapiens [1]; in the assay filed under Homo sapiens [2]; in assay [3]; in assay [4]; in assay [5]) was 0 °C in each case.

On to `CN1c2cccc(n2)N(C)c2cccc(n2)N(C)c2cccc(n2)N(C)c2cccc(n2)N(C)c2cccc(n2)N(C)c2cccc(n2)N(C)c2cccc1n2`, for which the ΔTm (in the assay listed under Homo sapiens [1]; in the assay listed under Homo sapiens [2]; in assay [3]; in assay [4]; in assay [5]) was 0 °C each time.

In the case of `CN1c2cccc(n2)N(C)c2cccc(n2)N(C)c2cccc(n2)N(C)c2cccc(n2)N(C)c2cccc(n2)N(C)c2cccc(n2)N(C)c2cccc(n2)N(C)c2cccc(n2)N(C)c2cccc1n2`, the ΔTm (in the assay filed under Homo sapiens [1]; in the assay filed under Homo sapiens [2]; in assay [3]; in assay [4]; in assay [5]) was 0 °C each time.

Consider `Cn1c2cccc(n2)n(C)c2cccc(n2)n(C)c2cccc(n2)n(C)c2cccc(n2)n(C)c2cccc(n2)n(C)c2cccc1n2`, for which the ΔTm – broadly, the change in melting temperature against a reference sample – was 7 °C in the assay filed under Homo sapiens [1]; 4 °C in the assay listed under Homo sapiens [2]; 0 °C in assay [3]; 0 °C in assay [4]; 0 °C in assay [5].

With `CN1c2cccc(n2)N(C)c2cccc(n2)N(C)c2cccc(n2)N(C)c2cccc(n2)N(C)c2cccc(n2)N(C)c2cccc(n2)N(C)c2cccc(n2)N(C)c2cccc1n2`, the thermal shift (ΔTm) (in the assay listed under Homo sapiens [1]; in the assay filed under Homo sapiens [2]; in assay [3]; in assay [4]; in assay [5]) was 0 °C in each case.
